According to patent US20160095842A1 (priority 2013, published 2016):
Values joined by “and” are separate entries in the source; they are usually repeats but may differ in a detail not shown here. Equal entries are not always repeated. “Also recorded” adds a separate entry of the source.

Assays:
pAKT (AKTpS473) = assay: Immunohistochemistry of RT112 tumors: pAKT; type: in vivo, female Hsd: Athymic Nude-nu mice; settings: 7 days, Compound A 50 mg/kg, Compound B 10 mg/kg, 2 hours after last treatment
Method: (§1) Animals: Experiments are performed in female Hsd: Athymic Nude-nu mice obtained from Harlan Cpb, Germany. Animals are from 8 to 14 weeks of age at treatment start and housed under Optimized Hygienic Conditions in Makrolon type III cages (max. 10 animals per cage) with free access to food and water
(§2) Establishment of RT112 tumors and compound treatments: The RT112 human urinary bladder carcinoma cell line was initially derived from a patient with untreated primary urinary bladder carcinoma in 1973 (Marshall et al. 1977, Masters et al. 1986). RT112 cells are cultured as in Example 1. Tumor establishment is done as in Example 2. Treatments are initiated when the mean tumor volumes are approximately 240 mm^3 (20 days post tumor cells injection).
(§3) Dissection: 2 hours after the last treatment animals are anaesthetized by Forene inhalation narcosis and euthanized by cervical dislocation. Each tumor is dissected, is cut into two equal pieces and is processed for formalin-fixed paraffin embedded sectioning. […]
(§4) Slides are mounted on a Ventana Discovery XT immunostainer and are processed for automated IHC by using a ChromoMAP kit and an OmniMAP anti Rabbit polymer-based amplification system. […] Endogenous peroxidase activities were subsequently quenched by using the ready to use solution from the ChromoMAP kit. […]

[1] = test system: RT112 urinary bladder carcinoma; assay: Antitumor activity against s.c. RT112 tumors in nude mice; type: in vivo, female Hsd: Athymic Nude-nu mice; settings: for Mean change of tumor volume / Final Tumor Volume: Clarke 1997 analysis table; for Final Tumor Volume: end of 14 days treatment, in mm³ (unit assumed)
Method: as §1, with “start and are housed under” for “start and housed under”
Establishment of RT112 tumors: The RT112 human urinary bladder carcinoma cell line was initially derived from a patient with untreated primary urinary bladder carcinoma in 1973. RT112 cells are cultured as in Example 1. To establish tumors, RT112 cells suspended in Hanks' balanced salt solution (HBSS) containing 50% Matrigel (BD #356234) are injected subcutaneously into the right flank. A total of 5×10^6 cells in 100 μl are injected per animal.
Evaluation of antitumor activity: Treatments are initiated when the mean tumor volumes were approximately 180 mm^3 (14 days post tumor cells injection). Body weights and tumor volumes are recorded twice a week. Tumor volumes are measured with calipers and determined according to the formula length×diameter^2×π/6. In addition to presenting changes of tumor volumes over the course of treatments, antitumor activity is expressed as T/C % (mean change of tumor volume of treated animals/mean change of tumor volume of control animals)×100. Regressions (%) are calculated according to the formula ((mean tumor volume at end of treatment-mean tumor volume at start of treatment)/mean tumor volume at start of treatment)×100.
Preparation of Compound Solutions: Vehicle control is prepared by mixing 250 μl 1-methyl-2-pyrrolidone (“NMP”)(Fluka #69118), 750 μl Polyethylene glycol 300 (“PEG300”)(Fluka, #81162), 500 μl Solutol HS15 (BASF, #51633963) and 1000 μl water.
Statistics: For all tests, the level of significance is set at p<0.05. For tumor volumes, comparisons between treatment groups and vehicle control group are done using one-way ANOVA followed by Dunnett's test. The level of significance of body weight change within a group between the start and the end of the treatment period is determined using a paired t-test. Comparisons of delta body weighs between treatment and vehicle control groups are performed by a one-way ANOVA followed by a post hoc Dunnett's test. Calculations are performed using GraphPad Prism 6 for Windows (GraphPad Software Inc.).
Estimation of drug-drug interaction: an approximation of drug interactions is made using the method described by Clarke R., “Issues in experimental design and endpoint analysis in the study of experimental cytotoxic agents in vivo in breast cancer and other models”, Breast Cancer Res. Treat., 46, 255-78 (1997) (“Clark 1997”). This is applied to ΔTV (Mean tumor volume at the end of the treatment period—mean tumor volume at the beginning of the treatment period).
Upon performance of the foregoing experiment, the results are summarized in the table below: Ten millions RT-112 cells are injected subcutaneously into the right flank of female athymic nude mice on Day 0. On day 14, tumors are measured and mice are randomized into treatment groups with 8 mice per group. […] Statistics on Δ tumor volumes are performed with a one-way ANOVA, post hoc Dunnett's (*p<0.05 vs. vehicle controls) to compare treatment groups against the vehicle control group. For body weights, paired t tests between the weights at the beginning and the end of the treatment period are performed (*p<0.05).
A compound interaction analysis with the method described by Clarke 1997 is conducted. In accordance with this method, the experimental data is interpreted as follows: antagonism is predicted when the calculation AB/C>B/C×A/C, additive interaction is predicted when the calculation AB/C=B/C×A/C, and synergistic when AB/C<B/C×A/C.

pErk1/2 (pMAPK) = assay: Immunohistochemistry of RT112 tumors: pErk1/2 (pMAPK); type: in vivo, female Hsd: Athymic Nude-nu mice; settings: 7 days, Compound A 50 mg/kg, Compound B 10 mg/kg, 2 hours after last treatment
Method: as §1, §2, §3, §4

[2] = test system: FGFR kinase receptors 1-4 (FGFR1, FGFR2, FGFR3, and FGFR4); settings: cited from earlier work
[3] = Compound A 50 mg/kg, Compound B 10 mg/kg, p.o., q24 h, 14 days

SMILES | inhibition of pAKT (immunohistochemistry) (pAKT (AKTpS473)) | Mean change of tumor volume [1] | % change of body weight [1, 3] [%] | Regression (%) [1, 3] | Survival (survivors/total) [1, 3] | Mean change of body weight (g ± SEM) ([1]; Compound A 50 mg/kg, Compound B 10 mg/kg, p.o., q24 h, 14 days, *p<0.05 paired t test) [g] | Final Tumor Volume [1] | inhibition of pErk1/2 (pMAPK) (immunohistochemistry) (pErk1/2 (pMAPK)) | T/C (%) (change in tumor volume, treated vs vehicle) ([1]; 10 mg/kg p.o. q24 h, 14 days, non-statistically significant) | T/C (%) [1, 3] [%] | Mean change of tumor volume (mm^3 ± SEM) ([1]; Compound A 50 mg/kg, Compound B 10 mg/kg, p.o., q24 h, 14 days, *p<0.05 vs vehicle) [mm^3] | ratio to vehicle control (B/C, A/C, AB/C) ([1]; based on Final Tumor Volume) | ratio to vehicle control (B/C, A/C, AB/C) ([1]; based on Mean change of tumor volume) | selectivity for FGFR kinase receptors 1-4 [2]
Cc1nc(NC(=O)N2CCC[C@H]2C(N)=O)sc1-c1ccnc(C(C)(C)C(F)(F)F)c1 [Compound A, (S)-Pyrrolidine-1,2-dicarboxylic acid 2-amide 1-({4-methyl-5-[2-(2,2,2-trifluoro-1,1-dimethyl-ethyl)-pyridin-4-yl]-thiazol-2-yl}-amide)] | strongly inhibits; also recorded: significantly inhibits | −2 | −0.8 | 1.1% and −1.1% | 8/8 | -0.2 ± 0.4 | 179.4 | – | – | – | – | – | – | –
CCN1CCN(c2ccc(Nc3cc(N(C)C(=O)Nc4c(Cl)c(OC)cc(OC)c4Cl)ncn3)cc2)CC1 [Compound B, 3-(2,6-dichloro-3,5-dimethoxy-phenyl)-1-{6-[4-(4-ethylpiperazin-1-l)-phenylamino]-pyrimidin-4-yl}-1-methyl-urea] | – | 145.6 | – | – | 8/8 | – | 327.2 | strongly inhibits; also recorded: significantly inhibits | 54.4 | 54.4 | 145.6 ± 66.5 | 0.728 | 0.544 | highly selective
